Results as given in patent publication US20220202948A1, “Agent for Eliminating Pluripotent Stem Cells” (Sumitomo Dainippon Pharma Co., Ltd., priority 2019, published 2022).
Square brackets hold non-standard residues; d marks the D form. Peptide text beside a SMILES is read from it. * marks the point of attachment. Dolaproine = CO[C@@H]([C@@H]1CCCN1)[C@@H](C)C(=O)O; Dil = CC[C@H](C)[C@H](NC)[C@@H](CC(=O)O)OC; X1 = C[C@@H](N*)[C@@H](O)c1ccccc1; NMeV = CN[C@H](C(=O)O)C(C)C

Columns and labels:
porcine tubulin [1] = target: T1, porcine tubulin (Sus scrofa, UniProt P02550+P02554); assay: Activity for inhibiting microtubule polymerization using porcine tubulins (2), microtubule polymerization rate; type: biochemical; details: compound 9.1 μM, 60 minutes after assay initiation, relative to wells without compound; lower = stronger inhibition
T1 construct: purchased Cytoskeleton Inc. BK006P
T1 sequence (P02550 whole entry): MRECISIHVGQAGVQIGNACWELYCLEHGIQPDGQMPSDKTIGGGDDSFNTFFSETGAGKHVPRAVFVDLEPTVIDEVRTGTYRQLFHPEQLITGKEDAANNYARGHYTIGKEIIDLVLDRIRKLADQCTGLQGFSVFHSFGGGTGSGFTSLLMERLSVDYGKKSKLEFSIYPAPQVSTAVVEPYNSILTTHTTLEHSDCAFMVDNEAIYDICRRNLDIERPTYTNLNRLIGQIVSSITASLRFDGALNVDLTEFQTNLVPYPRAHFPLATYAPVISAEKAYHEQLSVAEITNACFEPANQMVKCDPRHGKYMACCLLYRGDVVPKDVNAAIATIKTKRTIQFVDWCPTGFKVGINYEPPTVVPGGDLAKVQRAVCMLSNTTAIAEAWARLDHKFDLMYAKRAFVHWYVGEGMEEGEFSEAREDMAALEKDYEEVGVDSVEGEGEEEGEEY
T1 sequence (P02554 whole entry): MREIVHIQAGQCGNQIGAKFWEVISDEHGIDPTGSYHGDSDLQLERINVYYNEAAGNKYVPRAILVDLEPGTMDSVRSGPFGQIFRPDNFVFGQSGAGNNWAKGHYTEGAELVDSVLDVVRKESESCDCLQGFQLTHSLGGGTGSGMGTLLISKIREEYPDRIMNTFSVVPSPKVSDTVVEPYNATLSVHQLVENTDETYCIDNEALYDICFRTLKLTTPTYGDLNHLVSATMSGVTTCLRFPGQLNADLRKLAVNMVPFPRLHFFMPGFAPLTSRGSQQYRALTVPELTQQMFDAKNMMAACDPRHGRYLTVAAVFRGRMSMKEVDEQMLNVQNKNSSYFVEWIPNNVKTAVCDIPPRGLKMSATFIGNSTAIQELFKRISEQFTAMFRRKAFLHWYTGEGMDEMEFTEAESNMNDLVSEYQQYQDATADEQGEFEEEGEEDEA
Protocol: (§1) Using a tubulin polymerization inhibition assay kit (catalog number: BK006P) purchased from Cytoskeleton Inc., the polymerization inhibitory activity of compounds of Examples at a concentration of 9.1 μM was evaluated in accordance with the protocol appended to the kit. To a 96 well microplate, 80 mM PIPES pH 6.9, 2 mM MgCl, 0.5 mM EGTA and 5% DMSO buffered solution of the compound to be evaluated was added in an amount of 10 μL for each well, and to these wells, 3 mg/mL porcine tubulin 80 mM PIPES pH 6.9, 2 mM MgCl, 0.5 mM EGTA, 1 mM GTP and 10.2% glycerol solution was added in an amount of 100 μL for each well. In order to examine a state in which tubulins polymerize over time, the absorbance at 340 nm was measured at 37° C., using a microplate reader. As the polymerization of tubulins progresses, the absorbance at 340 nm rises.
The tubulin polymerization inhibitory activity was evaluated based on the proportion of polymerized tubulins 60 minutes after the assay initiation. Specifically, the microtubule polymerization rate (%) was calculated by dividing the absorbance of tubulins that had polymerized at wells to which the compound had been added by the absorbance of tubulins that had polymerized at wells to which the compound had not been added, and multiplying the obtained value by 100.

[2] = Membrane permeability test, parallel artificial membrane permeability assay (PAMPA); type: in vitro ADME; details: pH 7.4, 37° C.; for Papp at 4 h: read-out: permeability coefficient Pe (pH 7.4)
Protocol: By the parallel artificial membrane permeability assay (PAMPA), the membrane permeability of compounds of Examples was examined as follows: To the donor plate, System solution (pION inc.) and GIT Lipid-0 (pION inc.) were added in an amount of 200 μL and 4 μL for each well, respectively. To the acceptor plate, Acceptor Sink Buffer (pION inc.) was added in an amount of 200 μL. Both plates were superposed and incubated at 37° C. for 4 hours, and then, UVs in the solutions on the side of acceptor and on the side of donor were measured with a UV plate reader (190 to 500 nm). Compounds with poor UV absorption were measured by LC-MS. The permeability coefficient Pe (10^−6 cm/sec) of the drug was calculated by the following formula.

porcine tubulin [3] = target: T1, porcine tubulin; assay: Activity for inhibiting microtubule polymerization using porcine tubulins (1), tubulin polymerization inhibition assay kit; type: biochemical; details: compound 0.91 μM, absorbance at 340 nm at 37° C., FIG. 1
Protocol: as §1, with “Examples with” for “Examples at”, “of 0.91” for “of 9.1”, “kit. In summary of the protocol, to” for “kit. To”

C/C(=C\[C@H](C(C)C)N(C)C(=O)[C@@H](NC(=O)[C@H]1CCCCN1C(C)C)C(C)(C)C)C(=O)N[C@H](CCC(=O)O)C(=O)O [Example 3, N-[(2E,4S)-2,5-Dimethyl-4-(methyl {3-methyl-N-[(2R)-1-(propan-2-yl)piperidine-2-carbonyl]-L-valyl}amino)hex-2-enoyl]-D-glutamic acid]
Microtubule polymerization rate (%) (porcine tubulin [1]): 5% | Papp at 4 h [2]: < 0.1 ×10⁻⁶ cm/s

CN[C@H](C(=O)N[C@H](C(=O)N(C)[C@H](/C=C(\C)C(=O)N[C@H](CCC(=O)NCCN1C(=O)CC(SC[C@H](N)C(=O)O)C1=O)C(=O)O)C(C)C)C(C)(C)C)C(C)(C)c1ccccc1 (stereo partly drawn) [Example 37, (3S,6S,9S,10E,14R)-14-(3-{[2-(3-{[(2R)-2-Amino-2-carboxyethyl]sulfanyl}-2,5-dioxopyrrolidin-1-yl)ethyl]amino}-3-oxopropyl)-6-tert-butyl-8,11-dimethyl-4,7,12-trioxo-3-(2-phenylpropan-2-yl)-9-(propan-2-yl)-2,5,8,13-tetraazapentadec-10-en-15-oic acid]
Microtubule polymerization rate (%) (porcine tubulin [1]): 9% | Papp at 4 h [2]: 0.2 ×10⁻⁶ cm/s

CN[C@H](C(=O)N[C@H](C(=O)N(C)[C@H](/C=C(\C)C(=O)NCCCC[C@@H](NC(=O)CCCN1C(=O)CC(SC[C@H](N)C(=O)O)C1=O)C(=O)O)C(C)C)C(C)(C)C)C(C)(C)c1cn(C)c2ccccc12 (stereo partly drawn) [Example 39]
Microtubule polymerization rate (%) (porcine tubulin [1]): 2% | Papp at 4 h [2]: 1.4 ×10⁻⁶ cm/s

CN[C@H](C(=O)N[C@H](C(=O)N(C)[C@H](/C=C(\C)C(=O)N[C@H](CCC(=O)NCCCCN1C(=O)CC(SC[C@H](N)C(=O)O)C1=O)C(=O)O)C(C)C)C(C)(C)C)C(C)(C)c1ccccc1 (stereo partly drawn) [Example 48]
Microtubule polymerization rate (%) (porcine tubulin [1]): 0% | Papp at 4 h [2]: 5.8 ×10⁻⁶ cm/s

CN[C@H](C(=O)N[C@H](C(=O)N(C)[C@H](/C=C(\C)C(=O)N[C@H](CC(=O)O)C(=O)O)C(C)C)C(C)(C)C)C(C)(C)c1cn(C)c2ccccc12 [Example 5]
Papp at 4 h [2]: < 0.1 ×10⁻⁶ cm/s

CN[C@H](C(=O)N[C@H](C(=O)N(C)[C@H](/C=C(\C)C(=O)N[C@@H](CCC(=O)O)C(=O)O)C(C)C)C(C)(C)C)C(C)(C)c1ccccc1 [Example 9]
Microtubule polymerization rate (%) (porcine tubulin [1]): 5% | Papp at 4 h [2]: < 0.1 ×10⁻⁶ cm/s

CN[C@H](C(=O)N[C@H](C(=O)N(C)[C@H](/C=C(\C)C(=O)NCCCC[C@@H](NC(=O)CCCN1C(=O)CC(SC[C@H](N)C(=O)O)C1=O)C(=O)O)C(C)C)C(C)(C)C)C(C)(C)c1ccccc1 (stereo partly drawn) [Example 58]
Microtubule polymerization rate (%) (porcine tubulin [1]): 0% | Papp at 4 h [2]: 3 ×10⁻⁶ cm/s

CN[C@H](C(=O)N[C@H](C(=O)N(C)[C@H](/C=C(\C)C(=O)N[C@@H](CCC(=O)O)C(=O)O)C(C)C)C(C)(C)C)C(C)(C)c1cn(C)c2ccccc12 [Example 6]
Microtubule polymerization rate (%) (porcine tubulin [1]): 4% | Papp at 4 h [2]: < 0.1 ×10⁻⁶ cm/s

CN[C@H](C(=O)N[C@H](C(=O)N(C)[C@H](/C=C(\C)C(=O)O)C(C)C)C(C)(C)C)C(C)(C)c1cn(C)c2ccccc12 [Hemiasterlin, reference compound]
activity for inhibiting microtubule polymerization (porcine tubulin [3]): comparable activities for inhibiting microtubule polymerization | Microtubule polymerization rate (%) (porcine tubulin [1]): 0% | Papp at 4 h [2]: 25.6 ×10⁻⁶ cm/s

CN[C@H](C(=O)N[C@H](C(=O)N(C)[C@H](/C=C(\C)C(=O)N[C@H](CCC(=O)NCCCN1C(=O)CC(SC[C@H](N)C(=O)O)C1=O)C(=O)O)C(C)C)C(C)(C)C)C(C)(C)c1cn(C)c2ccccc12 (stereo partly drawn) [Example 54]
Microtubule polymerization rate (%) (porcine tubulin [1]): 0% | Papp at 4 h [2]: < 0.1 ×10⁻⁶ cm/s

CN[C@H](C(=O)N[C@H](C(=O)N(C)[C@H](/C=C(\C)C(=O)N[C@@H](CCC(=O)NCCN1C(=O)CC(SC[C@H](N)C(=O)O)C1=O)C(=O)O)C(C)C)C(C)(C)C)C(C)(C)c1ccccc1 (stereo partly drawn) [Example 42]
Microtubule polymerization rate (%) (porcine tubulin [1]): 0% | Papp at 4 h [2]: 2.2 ×10⁻⁶ cm/s

CN[C@H](C(=O)N[C@H](C(=O)N(C)[C@H](/C=C(\C)C(=O)N[C@H](CCCCN)C(=O)O)C(C)C)C(C)(C)C)C(C)(C)c1cn(C)c2ccccc12 [Example 7]
Papp at 4 h [2]: 0.8 ×10⁻⁶ cm/s

CC[C@H](C)[C@@H]([C@@H](CC(=O)N1CCC[C@H]1[C@H](OC)[C@@H](C)C(=O)N[C@H](C)[C@@H](O)c1ccccc1)OC)N(C)C(=O)[C@@H](NC(=O)[C@@H](NC)C(C)C)C(C)C [MMAE, monomethyl auristatin, reference compound] (H-[NMeV]V[Dil][Dolaproine]-X1)
activity for inhibiting microtubule polymerization (porcine tubulin [3]): comparable activities for inhibiting microtubule polymerization | permeability coefficient Pe (pH 7.4) ([2]; 4 hours): 15.3 10^−6 cm/sec

CN[C@H](C(=O)N[C@H](C(=O)N(C)[C@H](/C=C(\C)C(=O)N[C@H](CC(=O)NCCN1C(=O)CC(SC[C@H](N)C(=O)O)C1=O)C(=O)O)C(C)C)C(C)(C)C)C(C)(C)c1ccccc1 (stereo partly drawn) [Example 40]
Papp at 4 h [2]: 3 ×10⁻⁶ cm/s

CN[C@H](C(=O)N[C@H](C(=O)N(C)[C@H](/C=C(\C)C(=O)N[C@@H](CCCCNC(=O)CCCN1C(=O)CC(SC[C@H](N)C(=O)O)C1=O)C(=O)O)C(C)C)C(C)(C)C)C(C)(C)c1cn(C)c2ccccc12 (stereo partly drawn) [Example 57]
Papp at 4 h [2]: < 0.1 ×10⁻⁶ cm/s

CN[C@H](C(=O)N[C@H](C(=O)N(C)[C@H](/C=C(\C)C(=O)N[C@H](CCC(=O)O)C(=O)O)C(C)C)C(C)(C)C)C(C)(C)c1cn(C)c2ccccc12 [Example 1, N,β,β-tetramethyl-L-tryptophyl-N-[(3S,4E)-6-{[(1R)-1,3-dicarboxypropyl]amino}-2,5-dimethyl-6-oxohex-4-en-3-yl]-N,3-dimethyl-L-valinamide]
activity for inhibiting microtubule polymerization (porcine tubulin [3]): comparable activities for inhibiting microtubule polymerization | Papp at 4 h [2]: < 0.1 ×10⁻⁶ cm/s

CN[C@H](C(=O)N[C@H](C(=O)N(C)[C@H](/C=C(\C)C(=O)N[C@H](CCC(=O)O)C(=O)O)C(C)C)C(C)(C)C)C(C)(C)c1ccccc1 [Example 2, N,β,β-Trimethyl-L-phenylalanyl-N-[(3S,4E)-6-{[(1R)-1,3-dicarboxypropyl]amino}-2,5-dimethyl-6-oxohex-4-en-3-yl]-N,3-dimethyl-L-valinamide]
Microtubule polymerization rate (%) (porcine tubulin [1]): 2% | Papp at 4 h [2]: < 0.1 ×10⁻⁶ cm/s

CN[C@H](C(=O)N[C@H](C(=O)N(C)[C@H](/C=C(\C)C(=O)N[C@@H](CC(=O)NCCN1C(=O)CC(SC[C@H](N)C(=O)O)C1=O)C(=O)O)C(C)C)C(C)(C)C)C(C)(C)c1ccccc1 (stereo partly drawn) [Example 41]
Papp at 4 h [2]: < 0.1 ×10⁻⁶ cm/s

CN[C@H](C(=O)N[C@H](C(=O)N(C)[C@H](/C=C(\C)C(=O)N[C@@H](CCC(=O)NCCN1C(=O)CC(SC[C@H](N)C(=O)O)C1=O)C(=O)O)C(C)C)C(C)(C)C)C(C)(C)c1cn(C)c2ccccc12 (stereo partly drawn) [Example 49]
Microtubule polymerization rate (%) (porcine tubulin [1]): 0% | Papp at 4 h [2]: < 0.1 ×10⁻⁶ cm/s

CN[C@H](C(=O)N[C@H](C(=O)N(C)[C@H](/C=C(\C)C(=O)N[C@H](CCC(=O)O)C(=O)NCCN1C(=O)CC(SC[C@H](N)C(=O)O)C1=O)C(C)C)C(C)(C)C)C(C)(C)c1ccccc1 (stereo partly drawn) [Example 46]
Microtubule polymerization rate (%) (porcine tubulin [1]): 0% | Papp at 4 h [2]: 3.5 ×10⁻⁶ cm/s
